Source: US9757432B2, “Materials and methods useful for treating glioblastorna” (Ohio State Innovation Foundation, priority 2012, dated 2017)
Residues, ends and D or L forms follow the SMILES beside them. *: point of attachment. Cbz = O=C(OCc1ccccc1)*; CH2F = FC*

Tested on: glioma cells
Assay: Rescue of SapC-DOPS-induced killing by pathway inhibitors
Assay type: cell-based
Settings: inhibitor given with SapC-DOPS
Excerpt: Synergy analysis was completed using CompuSyn software.

Row | Structure (SMILES) | rescue of SapC-DOPS-induced killing
1 | Cn1cnc(N)c2ncnc1-2 [3-methyladeneine] | significant rescue
2 | COC(=O)C[C@H](NC(=O)[C@H](C)NC(=O)[C@@H](NC(=O)OCc1ccccc1)C(C)C)C(=O)CF [Z-VAD-FMK] (Cbz-Val-Ala-Asp(OMe)-CH2F) | did not rescue
3 | CO/C1=C\C(C)=C\[C@@H](C)[C@@H](O)[C@@H](C)C/C(C)=C/C=C/[C@H](OC)[C@@H]([C@@H](C)[C@@H](O)[C@H](C)[C@@]2(O)C[C@@H](O)[C@H](C)[C@@H](C(C)C)O2)OC1=O [bafilomycin Al] | significant rescue
